Series [1] has as its target T1, Receptor-type tyrosine-protein kinase FLT3 (Homo sapiens, UniProt P36888).
T1 sequence (P36888 whole entry): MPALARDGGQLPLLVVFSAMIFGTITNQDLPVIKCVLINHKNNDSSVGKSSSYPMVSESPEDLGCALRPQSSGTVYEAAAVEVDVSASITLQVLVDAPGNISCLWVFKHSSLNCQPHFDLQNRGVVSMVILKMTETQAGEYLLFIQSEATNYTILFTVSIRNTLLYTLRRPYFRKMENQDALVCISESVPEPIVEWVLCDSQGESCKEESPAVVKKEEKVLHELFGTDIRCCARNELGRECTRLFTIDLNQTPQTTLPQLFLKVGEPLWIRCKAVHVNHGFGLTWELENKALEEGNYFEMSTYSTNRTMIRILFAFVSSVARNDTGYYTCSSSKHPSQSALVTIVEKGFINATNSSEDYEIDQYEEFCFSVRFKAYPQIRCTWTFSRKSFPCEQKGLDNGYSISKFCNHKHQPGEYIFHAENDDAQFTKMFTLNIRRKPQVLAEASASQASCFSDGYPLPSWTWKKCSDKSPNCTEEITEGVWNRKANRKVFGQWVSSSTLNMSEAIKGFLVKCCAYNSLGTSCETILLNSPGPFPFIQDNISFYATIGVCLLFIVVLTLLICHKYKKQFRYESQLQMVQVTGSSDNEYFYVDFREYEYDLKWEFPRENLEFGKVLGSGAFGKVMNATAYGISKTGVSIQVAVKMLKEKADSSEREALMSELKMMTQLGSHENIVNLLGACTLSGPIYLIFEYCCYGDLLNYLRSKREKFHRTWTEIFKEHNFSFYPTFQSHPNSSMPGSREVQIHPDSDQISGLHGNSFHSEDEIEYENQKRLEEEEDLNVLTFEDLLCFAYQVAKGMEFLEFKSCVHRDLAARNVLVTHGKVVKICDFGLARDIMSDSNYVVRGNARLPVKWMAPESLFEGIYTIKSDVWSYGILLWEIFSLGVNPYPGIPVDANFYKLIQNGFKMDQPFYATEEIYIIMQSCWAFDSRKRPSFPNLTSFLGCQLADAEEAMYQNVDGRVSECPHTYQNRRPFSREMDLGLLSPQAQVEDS
Description: Inhibition of human FLT3 using EAIYAAPFAKKK as substrate preincubated for 20 mins followed by [gamma-33P]-ATP addition and measured after 120 mins by Hotspot assay.

Series [2] can be described thus: Half life in rat liver microsomes at 1 uM after 5 to 60 mins in presence of NADPH by LC-MS/MS analysis. It counts as ADME, Microsome. In general terms: Microsomes from liver hold many membrane-bound enzymes, among them those of drug oxidation.
Series [3] can be described thus: Intrinsic clearance in human liver microsomes assessed per mg protein at 1 uM after 5 to 60 mins in presence of NADPH by LC-MS/MS analysis. It counts as ADME, Microsome. Particulars: read-out: CLH.
A short description of series [4]: Half life in human liver microsomes at 1 uM after 5 to 60 mins in presence of NADPH by LC-MS/MS analysis. The series is classed as ADME, Microsome.
A short description of series [5]: Intrinsic clearance in rat liver microsomes assessed per mg protein at 1 uM after 5 to 60 mins in presence of NADPH by LC-MS/MS analysis. The series is classed as ADME, Microsome. To be noted: read-out: CLH.
The subject of series [6] is MV4-11. The experiment in a line: Induction of apoptosis in human MV4-11 cells assessed as late apoptotic cells at 1 uM after 24 hrs by Annexin V-FITC/propidium iodide staining based flow cytometric analysis (reference value: 1.42%). It counts as functional.
Series [7] has as its system MV4-11. Description: Induction of apoptosis in human MV4-11 cells assessed as early apoptotic cells at 1 uM after 24 hrs by Annexin V-FITC/propidium iodide staining based flow cytometric analysis (reference value: 3.39%). The series is classed as functional. (In general: A flow cytometer gives signals particle by particle.)
In series [8] the test system is MV4-11. The experiment in a line: Cytotoxicity against human MV4-11 cells at 1 uM after 72 hrs by MTT assay. It counts as cell-based. To be noted: mv4-11, 72 h. (Formazan colour is commonly taken as a measure of viable cells.)
Series [9] deals with MV4-11. Description: Induction of apoptosis in human MV4-11 cells assessed as necrotic cells at 1 uM after 24 hrs by Annexin V-FITC/propidium iodide staining based flow cytometric analysis (reference value: 0%). The series is classed as functional.
Series [10] relates to MV4-11. Description: Induction of apoptosis in human MV4-11 cells assessed as viable cells at 1 uM after 24 hrs by Annexin V-FITC/propidium iodide staining based flow cytometric analysis (reference value: 95.19%). It counts as functional. To be noted: MV4-11, 24 h, read-out: Activity.

The source of these data is ChEMBL document CHEMBL4330071 (Eur J Med Chem, 2019).

Molecules are shown by their SMILES.

Broadly, the IC50 is the concentration at which inhibition is half-maximal. As usually defined, the half-life is the time needed for the level to fall by half in the phase considered.

`CN1CCN(c2ccc(Nc3[nH]nc4c3-c3ccccc3CC4)cc2)CC1` gave an IC50 in series [1] of 610 nM.
Take `Cc1ncc2n1-c1ccc(Cl)cc1C(c1ccccc1F)=NC2` [MIDAZOLAM]: the half-life at 1 µM in [2] amounted to 11.2 min; in series [4], 2.2 min. For the same compound, the figures for the microsomal CLint at 1 µM in series [3] and in series [5] were 625 µL/min/mg and 124 µL/min/mg, respectively.
Take `CNC(=O)c1cc(Oc2ccc(NC(=O)Nc3ccc(Cl)c(C(F)(F)F)c3)cc2)ccn1` [SORAFENIB]: the Activity in [6] is on record as 27.58%; in series [7] it was 32.25%; in series [8], “Non-Toxic”; in [9], 4.2%. The viability at 1 µM in series [10] came to 36%.
On to `COc1ccc(Oc2ccc3c(NC(=O)c4ccc(NC5CCN(C)CC5)cc4)n[nH]c3c2)cc1`, for which it took 222 nM to reach half-maximal inhibition in [1] (IC50).
On the same count and under the same terms, in the case of `CN1CCC(Nc2ccc(C(=O)Nc3n[nH]c4cc(Oc5ccccc5)ccc34)cc2)CC1` it was 136 nM; in that of `CN1CCN(c2ccc(Nc3[nH]nc4c3-c3ccccc3CO4)cc2)CC1`, 842 nM.
